Measured values from PMC9171646 (Proceedings of the National Academy of Sciences of the …, 2022).
Entries after “also recorded” stand apart in the source; their conditions may differ.

Tests used:
[1] = test system: EF-G-bound translocating 70S ribosome; assay: Presteady-state smFRET imaging of translocation; format: biochemical, E. coli; details: for Final state after prolonged stalling: 400 ms time resolution, extended imaging (Fig. S4A); for Effect on translocation: EF-G(GTP) delivered with 10 µM drug to PRE ribosomes, 25 °C; for Affinity for ribosome-bound EF-G vs EF-G in solution: inferred from smFRET with EF-G in excess
[2] = test system: EF-G(GDP)-ribosome INT2; details: cited from earlier work
[3] = test system: EF-G; details: cited from earlier work
[4] = test system: eEF2; details: cited from earlier work
[5] = test system: E. coli EF-G-70S ribosome; assay: Cryo-EM structure of EF-G-ArgB-70S complex; format: binding
[6] = test system: EF-G-ribosome translocation intermediate (INT2); assay: Presteady-state cryo-EM structure of EF-G-ArgB-INT2 translocation intermediate; format: binding, E. coli
[7] = test system: P. aeruginosa EF-G1; details: cited from earlier work
[8] = test system: Pseudomonas aeruginosa; details: cited from earlier work
[9] = test system: EF-G from P. aeruginosa (EF-G1); details: free P. aeruginosa EF-G1; cited from earlier work

Molecule	Final state after prolonged stalling [1]	Effect on translocation [1]	Binding site on EF-G [2]	Resistance by EF-G mutations [3]	Binding site on eEF2 [4]	Inhibition of ribosomes with EF-G in excess ([1]; EF-G in fivefold excess over ArgB (10 µM ArgB, 50 µM EF-G))	Affinity for ribosome-bound EF-G vs EF-G in solution [1]	Affinity for ribosome-bound EF-G vs EF-G in solution ([1]; listed as Argyrin B)	Binding site on EF-G ([5]; 50 µM ArgB, 0.4 µM 70S, 1 µM EF-G, 500 µM GTP)	State in which EF-G is trapped ([5]; nucleotide density compatible with GDP, switch-I disordered)	Binding site on EF-G in translocation intermediate ([6]; 10 µM ArgB, 5 µM EF-G, 1 mM GTP)	Contacts of ArgB in EF-G binding pocket ([6]; EF-G-ArgB-INT2, E. coli numbering)	Resistance by mutation of Pro414 ([7]; ArgB-resistant strains)	Resistance by Thr671Ala (E. coli Thr668) ([7]; P. aeruginosa EF-G1 domain V)	Antimicrobial activity against P. aeruginosa [8]	Direct binding to EF-G1, binding site [9]
CC(=O)O[C@H]1C[C@@]2(C)[C@@H](C[C@@H](O)[C@H]3[C@@]4(C)CC[C@@H](O)[C@@H](C)[C@@H]4CC[C@@]32C)/C1=C(\CCC=C(C)C)C(=O)O [FA, fusidic acid, reference compound]	eventually reached an EF-G-bound drug-stalled POST state after prolonged stalling	prolonged stalls during late steps of translocation	between domains I and III	mutations in EF-G have been reported to confer FA resistance												
CO[C@H]1[C@@H](O)[C@H](O)[C@H](OC[C@@]23C[C@@H]4[C@H](C)CC[C@H]4[C@@]4(C=O)CC2C=C(C(C)C)[C@@]34C(=O)O)O[C@@H]1C [Sordarin]					binds between domains III and V of eEF2											
argyrin B [ArgB]	eventually reached an EF-G-bound drug-stalled POST state after prolonged stalling	prolonged stalls during late steps of translocation				all ribosomes were inhibited	preferentially binds with high affinity to EF-G when it is bound to the ribosome; also recorded: lower affinity for EF-G in solution than on the ribosome	low affinity toward EF-G off the ribosome, but high affinity to EF-G bound to the ribosome	between domain III and V of EF-G	traps EF-G on the ribosome after GTP hydrolysis and Pi release	in the junction between EF-G domains III and V	van der Waals interactions with Met617, Leu660, and Met682 within domain V of EF-G and the backbone amide of Ala489 of EF-G was positioned within hydrogen bonding distance to the Sarcosine moiety	commonly mutated in ArgB-resistant strains	resistance to ArgB	at the forefront	bind directly to EF-G from P. aeruginosa (EF-G1) with the binding site located between domains III and V
